Test results from the NIST ThermoML archive (doi:10.1016/j.jct.2017.06.002).

Key:
[1] = xn = mol fraction of the nth substance listed; conditions: 100 kPa, Liquid, x1 = 1; for viscosity: Concentric cylinders viscometry; for mass density: Vibrating tube method
[2] = 100 kPa, Liquid; for viscosity: Concentric cylinders viscometry

COCOCOCOC [2,4,6,8-tetraoxanonane] + COCOCOCOCOC
[1]
Conditions	mass density [kg/m3]	viscosity [mPa·s]
288.15 K	1037.5	1.259
293.15 K	1030.2	1.166
298.15 K	1023.4	1.084
303.15 K	1016.6	1.028
308.15 K	1011	0.9921
313.15 K	1005	0.9521

COCOCOC [2,4,6-trioxaheptane] + COCOCOCOCOC
[1]
Conditions	mass density [kg/m3]	viscosity [mPa·s]
288.15 K	999.4	0.9255
293.15 K	995.3	0.9152
298.15 K	989.9	0.9028
303.15 K	984.3	0.8885
308.15 K	978.8	0.8726
313.15 K	974.2	0.8554

COCOCOC [2,4,6-trioxaheptane] + COCOCOCOC
[1]
Conditions	mass density [kg/m3]	viscosity [mPa·s]
288.15 K	999.4	0.9255
293.15 K	995.3	0.9152
298.15 K	989.9	0.9028
303.15 K	984.3	0.8885
308.15 K	978.8	0.8726
313.15 K	974.2	0.8554

COCOCOCOCOC [2,4,6,8,10-pentaoxaundecane]
[2]
Conditions	viscosity [mPa·s]
288.15 K	2.207
293.15 K	2.015
298.15 K	1.848
303.15 K	1.703
308.15 K	1.576
313.15 K	1.464

mass density [kg/m3], [2]
Conditions	288.15 K	293.15 K	298.15 K	303.15 K	308.15 K	313.15 K
Buoyancy - hydrostatic balance	–	–	1067.8	–	–	–
Vibrating tube method	1078.8	1073.3	1068.2	1063.4	1059.1	1055.2

COCOCOC [2,4,6-trioxaheptane]
[2]
Conditions	viscosity [mPa·s]
288.15 K	0.9255
293.15 K	0.9152
298.15 K	0.9028
303.15 K	0.8885
308.15 K	0.8726
313.15 K	0.8554

mass density [kg/m3], [2]
Conditions	288.15 K	293.15 K	298.15 K	303.15 K	308.15 K	313.15 K
Buoyancy - hydrostatic balance	–	–	989.2	–	–	–
Vibrating tube method	999.4	995.3	989.9	984.3	978.8	974.2

COCOCOCOC [2,4,6,8-tetraoxanonane]
[2]
Conditions	viscosity [mPa·s]
288.15 K	1.259
293.15 K	1.166
298.15 K	1.084
303.15 K	1.028
308.15 K	0.9921
313.15 K	0.9521

mass density [kg/m3], [2]
Conditions	288.15 K	293.15 K	298.15 K	303.15 K	308.15 K	313.15 K
Buoyancy - hydrostatic balance	–	–	1023.1	–	–	–
Vibrating tube method	1037.5	1030.2	1023.4	1016.6	1011	1005
